“And” between values parts separate entries of the source, which are not always exact repeats. Equal values may be shown once.

By T/C is commonly meant the result in the treated group divided by that in the control group, in per cent.

This test concerns BDF1 mice, Adenocarcinoma 755 s.c., tumor weight T/C. Kind of test: NCI In Vivo Anticancer Drug Screen. Data for tumor model Adenocarcinoma 755 (subcutaneous) in B6D2F1 (BDF1) mice. To be noted: endpoint: mean tumor weight, higher = larger tumour. The procedure, abridged: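 Transplantable tumor implanted; mice dosed with compound or vehicle; survival or tumor size recorded; ratio of treated to vehicle control reported.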

Setting [1] is: dose: 12.0 mg/kg/injection, schedule: Q01DX011 (ip), vehicle: carboxymethylcellulose (CMC).
Where [2] appears, read: dose: 25.0 mg/kg/injection, schedule: Q01DX011 (ip), vehicle: carboxymethylcellulose (CMC).
The mark [3] stands for this setting: dose: 60.0 mg/kg/injection, schedule: Q01DX011 (ip), vehicle: carboxymethylcellulose (CMC).
The mark [4] stands for this setting: dose: 120.0 mg/kg/injection, schedule: Q01DX011 (ip), vehicle: carboxymethylcellulose (CMC).
Where [5] appears, read: dose: 240.0 mg/kg/injection, schedule: Q01DX011 (ip), vehicle: carboxymethylcellulose (CMC).
The mark [6] stands for this setting: dose: 30.0 mg/kg/injection, schedule: Q01DX011 (ip), vehicle: carboxymethylcellulose (CMC).
Setting [7] is: dose: 15.0 mg/kg/injection, schedule: Q01DX011 (ip), vehicle: methylcellulose (MC).
The mark [8] stands for this setting: dose: 31.0 mg/kg/injection, schedule: Q01DX011 (ip), vehicle: methylcellulose (MC).
The mark [9] stands for this setting: dose: 62.0 mg/kg/injection, schedule: Q01DX011 (ip), vehicle: methylcellulose (MC).
Where [10] appears, read: dose: 125.0 mg/kg/injection, schedule: Q01DX011 (ip), vehicle: methylcellulose (MC).
Where [11] appears, read: dose: 250.0 mg/kg/injection, schedule: Q01DX011 (ip), vehicle: methylcellulose (MC).

As for `CCn1cnc2c(=S)nc[nH]c21`, the T/C by setting is: (dose: 0.75 mg/kg/injection, schedule: Q01DX011 (ip), vehicle: carboxymethylcellulose (CMC)) 100 % of control; (dose: 0.75 mg/kg/injection, schedule: Q#A X022 (ip), vehicle: carboxymethylcellulose (CMC)) 18 % of control; (dose: 1.5 mg/kg/injection, schedule: Q01DX006 (iv), vehicle: carboxymethylcellulose (CMC)) 121 % of control; (dose: 1.5 mg/kg/injection, schedule: Q01DX011 (im), vehicle: carboxymethylcellulose (CMC)) 14 % of control; (dose: 1.5 mg/kg/injection, schedule: Q01DX011 (sc), vehicle: carboxymethylcellulose (CMC)) 39 % of control; (dose: 1.5 mg/kg/injection, schedule: Q#A X022 (ip), vehicle: carboxymethylcellulose (CMC)) 1 % of control. Also, the T/C reads like this: (dose: 3.0 mg/kg/injection, schedule: Q01DX006 (iv), vehicle: carboxymethylcellulose (CMC)) 22 % of control; (dose: 3.0 mg/kg/injection, schedule: Q01DX011 (im), vehicle: carboxymethylcellulose (CMC)) 5 % of control; (dose: 3.0 mg/kg/injection, schedule: Q01DX011 (ip), vehicle: carboxymethylcellulose (CMC)) 6 % of control and 19 % of control; (dose: 3.0 mg/kg/injection, schedule: Q01DX011 (sc), vehicle: carboxymethylcellulose (CMC)) 17 % of control; (dose: 3.0 mg/kg/injection, schedule: Q#A X022 (ip), vehicle: carboxymethylcellulose (CMC)) 1 % of control; (dose: 4.5 mg/kg/injection, schedule: Q03DX004 (ip), vehicle: carboxymethylcellulose (CMC)) 24 % of control. Also, the T/C is, setting by setting: (dose: 4.6 mg/kg/injection, schedule: Q01DX011 (ip), vehicle: carboxymethylcellulose (CMC)) 58 % of control; (dose: 4.62 mg/kg/injection, schedule: Q01DX011 (ip), vehicle: carboxymethylcellulose (CMC)) 1 % of control; (dose: 6.0 mg/kg/injection, schedule: Q01DX006 (iv), vehicle: carboxymethylcellulose (CMC)) 15 % of control; (dose: 6.0 mg/kg/injection, schedule: Q01DX011 (im), vehicle: carboxymethylcellulose (CMC)) 1 % of control; (dose: 6.0 mg/kg/injection, schedule: Q01DX011 (ip), vehicle: carboxymethylcellulose (CMC)) 4 % of control and 13 % of control; (dose: 6.0 mg/kg/injection, schedule: Q01DX011 (sc), vehicle: carboxymethylcellulose (CMC)) 3 % of control. Also, the T/C is 1 % of control (dose: 6.0 mg/kg/injection, schedule: Q#A X022 (ip), vehicle: carboxymethylcellulose (CMC)); 23 % of control (dose: 9.0 mg/kg/injection, schedule: Q03DX004 (ip), vehicle: carboxymethylcellulose (CMC)); 20 % of control (dose: 9.2 mg/kg/injection, schedule: Q01DX011 (ip), vehicle: carboxymethylcellulose (CMC)); 1 % of control (dose: 9.25 mg/kg/injection, schedule: Q01DX011 (ip), vehicle: carboxymethylcellulose (CMC)); 1 % of control (dose: 9.25 mg/kg/injection, schedule: Q01DX011 (oral), vehicle: carboxymethylcellulose (CMC)); 53 % of control (dose: 11.0 mg/kg/injection, schedule: Q07DX002 (ip), vehicle: carboxymethylcellulose (CMC)). Further, the T/C reads like this: (dose: 12.0 mg/kg/injection, schedule: Q01DX006 (iv), vehicle: carboxymethylcellulose (CMC)) 3 % of control; under setting [1], 3 % of control; (dose: 18.0 mg/kg/injection, schedule: Q03DX004 (ip), vehicle: carboxymethylcellulose (CMC)) 4 % of control; (dose: 18.5 mg/kg/injection, schedule: Q01DX011 (ip), vehicle: carboxymethylcellulose (CMC)) 6 % of control; (dose: 22.0 mg/kg/injection, schedule: Q07DX002 (ip), vehicle: carboxymethylcellulose (CMC)) 33 % of control; (dose: 25.0 mg/kg/injection, schedule: Q01DX006 (iv), vehicle: carboxymethylcellulose (CMC)) 2 % of control. Besides, the T/C is, setting by setting: under setting [2], 1 % of control; (dose: 25.0 mg/kg/injection, schedule: Q01DX011 (sc), vehicle: carboxymethylcellulose (CMC)) 1 % of control; (dose: 37.0 mg/kg/injection, schedule: Q01DX011 (ip), vehicle: carboxymethylcellulose (CMC)) 2 % of control; (dose: 37.0 mg/kg/injection, schedule: Q03DX004 (ip), vehicle: carboxymethylcellulose (CMC)) 1 % of control; (dose: 44.0 mg/kg/injection, schedule: Q07DX002 (ip), vehicle: carboxymethylcellulose (CMC)) 8 % of control; (dose: 75.0 mg/kg/injection, schedule: Q03DX004 (ip), vehicle: carboxymethylcellulose (CMC)) 1 % of control. Also, the T/C reads like this: (dose: 87.0 mg/kg/injection, schedule: Q07DX002 (ip), vehicle: carboxymethylcellulose (CMC)) 4 % of control and 8 % of control; (dose: 350.0 mg/kg/injection, schedule: Q07DX002 (ip), vehicle: carboxymethylcellulose (CMC)) 2 % of control.
Regarding `C[N+](C)(C)c1ncnc2c1ncn2C1OC(CO)C(O)C1O` (stereo not given), the T/C is 48 % of control and 61 % of control (dose: 30.0 mg/kg/injection, schedule: Q01DX011 (ip), vehicle: saline); 109 % of control (dose: 60.0 mg/kg/injection, schedule: Q01DX011 (ip), vehicle: saline); 28 % of control (dose: 120.0 mg/kg/injection, schedule: Q01DX011 (ip), vehicle: saline); 9 % of control (dose: 240.0 mg/kg/injection, schedule: Q01DX011 (ip), vehicle: saline).
On to `O=c1[nH]cnc2nc(S(=O)(=O)F)[nH]c12`, for which the T/C under setting [3] was 117 % of control, the T/C under setting [4] is 121 % of control and the T/C under setting [5] is 115 % of control.
On to `COc1ccc(/C=N/Nc2nc3c([nH]2)c(=O)n(C)c(=O)n3C)cc1`, for which the T/C runs as follows: under setting [6], 108 % of control; under setting [3], 94 % of control; (dose: 480.0 mg/kg/injection, schedule: Q01DX011 (ip), vehicle: carboxymethylcellulose (CMC)) 64 % of control.
Take `CC(=O)Nc1c(Cl)c(Cl)c2c(c1Cl)Cc1cc(Br)ccc1-2`: the T/C reads like this: under setting [1], 30 % of control; under setting [2], 41 % of control.
As for `O=C(Nc1ccc(C2=NC3CCCCC3N2)cc1)c1cccc(C(=O)Nc2ccc(C3=NC4CCCCC4N3)cc2)c1` (stereo not given), the T/C was 73 % of control under setting [7]; 81 % of control (dose: 30.0 mg/kg/injection, schedule: Q01DX011 (ip), vehicle: methylcellulose (MC)); 73 % of control (dose: 60.0 mg/kg/injection, schedule: Q01DX011 (ip), vehicle: methylcellulose (MC)); 59 % of control (dose: 120.0 mg/kg/injection, schedule: Q01DX011 (ip), vehicle: methylcellulose (MC)).
As to `O=c1[nH]cnc2c1ncn2C1CCCO1` (stereo not given), the T/C runs as follows: under setting [6], 80 % of control; under setting [3], 105 % of control; under setting [4], 106 % of control; under setting [5], 75 % of control.
As to `O=CC1CO1` (stereo not given), the T/C (dose: 29.0 mg/kg/injection, schedule: Q01DX011 (ip), vehicle: saline) was 71 % of control; the T/C (dose: 44.0 mg/kg/injection, schedule: Q01DX011 (ip), vehicle: saline) was 41 % of control; the T/C (dose: 66.0 mg/kg/injection, schedule: Q01DX011 (ip), vehicle: saline) was 66 % of control.
For `O=C(CCBr)NCCCCCCNC(=O)CCBr`, the T/C was 114 % of control (dose: 56.0 mg/kg/injection, schedule: Q01DX011 (ip), vehicle: methylcellulose (MC)); 67 % of control (dose: 113.0 mg/kg/injection, schedule: Q01DX011 (ip), vehicle: methylcellulose (MC)); 114 % of control (dose: 225.0 mg/kg/injection, schedule: Q01DX011 (ip), vehicle: methylcellulose (MC)).
Turning to `CCCCCCCCSc1ncnc2c1ncn2CC`, the T/C is 58 % of control (dose: 150.0 mg/kg/injection, schedule: Q01DX011 (ip), vehicle: saline) and 17 % of control (dose: 300.0 mg/kg/injection, schedule: Q01DX011 (ip), vehicle: saline).
For the compound `Cc1cnc(SCc2ccc(Cl)cc2)nc1Nc1ccc(Cl)cc1Cl`, the T/C by setting is: under setting [8], 97 % of control; under setting [9], 69 % of control; under setting [10], 65 % of control; under setting [11], 65 % of control.
For `CCCCNCC(C)C(=O)OC` (stereo not given), the T/C reads like this: under setting [7], 92 % of control; under setting [8], 93 % of control; under setting [9], 87 % of control; under setting [10], 104 % of control; under setting [11], 104 % of control.

Values taken from PubChem BioAssay AID180 (DTP/NCI, 2004).
